Results reported in ChEMBL document CHEMBL5030526, “Synthesis and Preclinical Validation of Novel Indole Derivatives as a GPR17 Agonist for Glioblastoma Treatment” (J Med Chem, 2021).
Active and inactive are the calls of the source. No cut-off for these calls is given here.

Tests used:
[1] = biological target: T1, Uracil nucleotide/cysteinyl leukotriene receptor (Homo sapiens, UniProt Q13304); experiment: Agonist activity at human GPR17 in human LN-229 cells assessed as decrease in intracellular cAMP levels incubated for 2 hrs by cAMP Glo Dynamic assay
[2] = biological target: T1, Uracil nucleotide/cysteinyl leukotriene receptor; experiment: Agonist activity at human GPR17 in human LN-229 cells assessed as decrease in calcium ion levels incubated for 2 hrs by Calcium Fura 2 Dynamic assay
[3] = biological target: T1, Uracil nucleotide/cysteinyl leukotriene receptor; experiment: Agonist activity at human GPR17 in human SNB-19 cells assessed as decrease in calcium ion levels incubated for 2 hrs by Calcium Fura 2 Dynamic assay
LN-229 [4] = experiment: Cytotoxicity against human LN-229 cells assessed as increase in cell death at 100 uM incubated for 48 hrs by trypan blue exclusion assay; assay type: functional, cell-based
SNB-19 [5] = experiment: Cytotoxicity against human SNB-19 cells assessed as cell growth inhibition at 100 uM incubated for 48 hrs by trypan blue exclusion assay; assay type: functional; conditions: read-out: GI
LN-229 [6] = experiment: Cytotoxicity against human LN229 cells assessed as cell growth inhibition at 100 uM incubated for 48 hrs by trypan blue exclusion assay; assay type: functional; conditions: read-out: GI
[7] = Cytotoxicity against mouse MEF cells assessed as cell growth inhibition at 100 uM incubated for 48 hrs by trypan blue exclusion assay; assay type: cell-based
LN-229 [8] = experiment: Cytotoxicity effect against human LN-229 cells assessed as cell growth inhibition incubated for 48 hrs by trypan blue exclusion assay; assay type: functional, cell-based; conditions: LN-229, 48 h
SNB-19 [9] = experiment: Cytotoxicity effect against human SNB-19 cells assessed as cell growth inhibition incubated for 48 hrs by trypan blue exclusion assay; assay type: functional, cell-based; conditions: SNB-19, 48 h
[10] = biological target: T1, Uracil nucleotide/cysteinyl leukotriene receptor; experiment: Inverse agonist at human GPR17 in human LN-229 cells assessed as intracellular cAMP levels incubated for 2 hrs by cAMP Glo Dynamic assay
[11] = biological target: T1, Uracil nucleotide/cysteinyl leukotriene receptor; experiment: Inverse agonist at human GPR17 in human SNB-19 cells assessed as intracellular cAMP levels incubated for 2 hrs by cAMP Glo Dynamic assay

T1 sequence (Q13304 whole entry): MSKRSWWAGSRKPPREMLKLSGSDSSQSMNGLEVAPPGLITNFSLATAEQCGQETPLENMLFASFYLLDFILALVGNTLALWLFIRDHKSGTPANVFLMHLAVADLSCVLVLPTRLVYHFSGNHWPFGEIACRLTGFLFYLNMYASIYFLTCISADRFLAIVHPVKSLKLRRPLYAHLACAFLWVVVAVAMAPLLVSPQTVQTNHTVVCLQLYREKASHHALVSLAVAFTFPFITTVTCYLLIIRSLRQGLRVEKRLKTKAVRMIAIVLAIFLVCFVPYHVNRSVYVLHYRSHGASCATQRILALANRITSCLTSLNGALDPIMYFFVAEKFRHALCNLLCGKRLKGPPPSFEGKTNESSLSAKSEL

SMILES	EC50 [1] [µM]	EC50 [2] [µM]	EC50 [3] [µM]	Activity (LN-229 [4])	inhibition of growth at 100 µM (SNB-19 [5]) [%]	inhibition of growth at 100 µM (LN-229 [6]) [%]	inhibition at 48 h, 100 µM [7] [%]	IC50 (LN-229 [8]) [µM]	IC50 (SNB-19 [9]) [µM]	EC50 [10] [µM]	EC50 [11] [µM]
O=C(Nc1ccccc1)Oc1cc(OC(=O)Nc2ccccc2)c2c(c1)N(C(c1ccc(F)cc1)c1cccc(Cl)c1O)CC2 (stereo not given)	59.6	41.9	7.67	Active	37	50	< 5	85.3	85.5	–	–
Cn1nnc2c(C(N)=O)ncn2c1=O [TEMOZOLOMIDE]	–	–	–	–	–	–	–	67.8	69.9	–	–
O=C(O)CCC1=C(C(=O)O)Cc2cc(Cl)cc(Cl)c21	–	26.9	26.3	–	–	–	–	–	–	16.6	17.7
